Experimental data taken from patent US10654819B2, “Processes for the preparation of 2,5-furandicarboxylic acid and intermediates and derivatives thereof” (Stora Enso Oyj, priority 2016, dated 2020).

Key:
[1] = FDCA solubility studies in various solvent compositions, visual inspection of dissolution (Example 23); format: physicochemical
Method: A series of samples containing various amounts of FDCA and mixed solvent compositions were prepared in sealed pressure ampules (typically containing 2-5 g material (FDCA and solvent composition)). For example, 200 mg FDCA, 900 mg NMP, and 900 mg de-ionized water were added to an 8 mL glass vial with a stir bar inside, corresponding to a mixture containing 10 wt % FDCA. Other samples corresponding to different wt % FDCA samples in various mixed solvent compositions were prepared in a similar manner. […] The reported FDCA solubility in Table 11 represents the maximum wt % FDCA that can be dissolved in the given solvent composition using this testing method.

[2] = FDCA solubility characterization in candidate solvents (Example 1); format: physicochemical
Method: Solvents were screened for the ability to dissolve FDCA. 10 ml of a candidate solvent was heated to a certain temperature and FDCA (Product No. F0710, TCI America) was added by small portions to the heated candidate solvent until the FDCA amount exceeded the solubility limit. After that, small volumes of solvent were added until the excess solids were completely dissolved. The experiment was repeated two times at each temperature and the average was taken as FDCA solubility. Five solvents were tested: (1) deionized water; (2) diglyme; (3) dioxane; (4) a 1:1 by volume mixture of diglyme with deionized water; and (5) a 4:1 by volume mixture of dioxane with deionized water. The results are depicted in FIG. 3 as a plot of FDCA Solubility (Weight %) as a function of temperature (° C.). […] However, when each of the organic solvents was combined with water, the resulting co-solvent appeared to provide a synergistic enhancement in FDCA solubilizing capability. […] Similarly, at 100° C., although FDCA solubility in water and dioxane individually was less than 1% (by weight) and less than 2% (by weight), respectively, the FDCA solubility trend line for the co-solvent system of 1:4 ratio of deionized water:dioxane, by volume, indicates 9% (by weight) FDCA solubility.

O=C(O)c1ccc(C(=O)O)o1 [FDCA, 2,5-furandicarboxylic acid]
FDCA solubility ([1]; Bu^tOH 50 wt. % / H2O 50 wt. %, 100 ° C.): 7.0 wt. %
FDCA solubility ([1]; Bu^tOH 75 wt. % / H2O 25 wt. %, 100 ° C.): 7.5 wt. %
FDCA solubility ([1]; MEK 25 wt. % / H2O 75 wt. %, 100 ° C.): 5.5 wt. %
FDCA solubility ([1]; MEK 90 wt. % / H2O 10 wt. %, 100 ° C.): 4.0 wt. %
FDCA solubility ([1]; NMP 20 wt. % / H2O 80 wt. %, 23 ° C.): 0.3 wt. %
FDCA solubility ([1]; NMP 20 wt. % / H2O 80 wt. %, 100 ° C.): 4.0 wt. %
FDCA solubility ([1]; NMP 20 wt. % / H2O 80 wt. %, 120 ° C.): 7.5 wt. %
FDCA solubility ([1]; NMP 35 wt. % / H2O 65 wt. %, 23 ° C.): 0.5 wt. %
FDCA solubility ([1]; NMP 35 wt. % / H2O 65 wt. %, 100 ° C.): 9.0 wt. %
FDCA solubility ([1]; NMP 35 wt. % / H2O 65 wt. %, 120 ° C.): 13.5 wt. %
FDCA solubility ([1]; NMP 50 wt. % / H2O 50 wt. %, 100 ° C.): 14.5 wt. %
FDCA solubility ([1]; NMP 50 wt. % / H2O 50 wt. %, 120 ° C.): 19.5 wt. %
FDCA solubility ([1]; gamma-valerolactone 25 wt. % / H2O 75 wt. %, 100 ° C.): 4.0 wt. %
FDCA solubility ([1]; gamma-valerolactone 50 wt. % / H2O 50 wt. %, 100 ° C.): 7.0 wt. %
FDCA solubility ([1]; gamma-valerolactone 75 wt. % / H2O 25 wt. %, 100 ° C.): 6.5 wt. %
FDCA solubility ([2]; in 1:1 deionized water:diglyme by volume, 100° C.): 9 % (by weight)
FDCA solubility ([2]; in 1:4 deionized water:dioxane by volume, 100° C., from trend line): 9 % (by weight)
FDCA solubility ([2]; in diglyme, 22° C. to 100° C.): less than 2 % by weight
FDCA solubility ([2]; in diglyme, 100° C.): less than 2 % (by weight)
FDCA solubility ([2]; in dioxane, 22° C. to 100° C.): less than 2 % by weight
FDCA solubility ([2]; in dioxane, 100° C.): less than 2 % (by weight)
FDCA solubility ([2]; in water, 22° C. to 140° C.): less than 2 % by weight
FDCA solubility ([2]; in water, 100° C.): less than 1 % (by weight)
